These results are taken from US11197863B2, “Inhibitors of polo-like kinase 4 (PLK4) for treating pediatric embryonal tumors” (ANN AND ROBERT H. LURIE CHILDREN'S HOSPITAL OF CHICAGO, priority 2017, dated 2021).

Molecules are shown by their SMILES. Read-outs that look alike come from different tables or passages of the source.

Assay [1] has as its system rhabdoid tumor cell lines. To be noted: inhibition of ERBB2; cited from earlier work.
The conditions of assay [2]: children, single agent; cited from earlier work.
Assay [3] concerns rhabdoid mouse xenograft models. To be noted: in vivo; cited from earlier work.
The next assay has as its system DAOY cells. As to the kind of experiment: Combination therapy viability assay. To be noted: Homo sapiens, 72 h.
The next assay has as its system BT-16 cells. As to the kind of experiment: Combination therapy viability assay. The conditions noted are these: Homo sapiens, BT-16, 72 h, read-out: IC50 of compound 2. It is filed as cell-based.
The next assay concerns MON cells. Briefly: Combination therapy viability assay. It counts as cell-based. To be noted: Homo sapiens, 72 h, read-out: IC50 of compound 2.
The mark [4] stands for this setting: read-out: IC50 of compound 2, DAOY, combined with CFI-400945 (5 nM).
[5] abbreviates: read-out: IC50 of compound 2, DAOY, combined with CFI-400945 (10 nM).
Where [6] appears, read: combined with CFI-400945 (5 nM).
Where [7] appears, read: combined with CFI-400945 (10 nM).

As to `CS(=O)(=O)CCNCc1ccc(-c2ccc3ncnc(Nc4ccc(OCc5cccc(F)c5)c(Cl)c4)c3c2)o1` [lapatinib], the “cell migration and apoptosis” value in assay [1] was “significant impairment of cell migration and initiation of apoptosis”.

For `COc1cc(Nc2ncc3c(n2)-c2ccc(Cl)cc2C(c2c(F)cccc2OC)=NC3)ccc1C(=O)O` [alisertib], the clinical activity result in assay [2] is “active as a single agent”. Moreover, the response rates result in assay [3] was “high response rates”.

`COc1cc([C@@H]2c3cc4c(cc3[C@@H](O[C@@H]3O[C@@H]5CO[C@@H](C)O[C@H]5[C@H](O)[C@H]3O)[C@H]3COC(=O)[C@H]23)OCO4)cc(OC)c1O` [Etoposide, etoposide]: the 50% inhibitory concentration (IC50) in the assay on DAOY cells (setting [4]) turned out to be 494 nM; in the assay with DAOY cells (setting [5]), 800 nM; with BT-16 cells (setting [6]), 593 nM; in the assay on BT-16 cells (setting [7]), 6 nM; with MON cells (setting [6]), 292 nM; in the assay with MON cells (setting [7]), 266 nM.

On to `COc1cccc2c1C(=O)c1c(O)c3c(c(O)c1C2=O)C[C@@](O)(C(=O)CO)C[C@@H]3O[C@H]1C[C@H](N)[C@H](O)[C@H](C)O1` [Doxorubicin, doxorubicin], for which the IC50 in the assay with DAOY cells (setting [4]) amounted to 168 nM; in the assay with DAOY cells (setting [5]) it was 199 nM; in the assay on BT-16 cells (setting [6]), 566 nM; in the assay with BT-16 cells (setting [7]), 576 nM; in the assay with MON cells (setting [6]), 74 nM; in the assay with MON cells (setting [7]) it was 57 nM.

As usually defined, the IC50 is the midpoint of a concentration-inhibition curve.
